Measurements from paper PMC7587337, “Kaempferol Facilitated Extinction Learning in Contextual Fear Conditioned Rats via Inhibition of Fatty-Acid Amide Hydrolase” (Molecules, 2020).

Legend:
[1] = biological target: T1, fatty-acid amide hydrolase (FAAH) (Homo sapiens, UniProt O00519); test: FAAH inhibitor screening assay kit (Cayman […]), percent inhibition at […]; assay type: biochemical
T1 sequence (O00519 1-579): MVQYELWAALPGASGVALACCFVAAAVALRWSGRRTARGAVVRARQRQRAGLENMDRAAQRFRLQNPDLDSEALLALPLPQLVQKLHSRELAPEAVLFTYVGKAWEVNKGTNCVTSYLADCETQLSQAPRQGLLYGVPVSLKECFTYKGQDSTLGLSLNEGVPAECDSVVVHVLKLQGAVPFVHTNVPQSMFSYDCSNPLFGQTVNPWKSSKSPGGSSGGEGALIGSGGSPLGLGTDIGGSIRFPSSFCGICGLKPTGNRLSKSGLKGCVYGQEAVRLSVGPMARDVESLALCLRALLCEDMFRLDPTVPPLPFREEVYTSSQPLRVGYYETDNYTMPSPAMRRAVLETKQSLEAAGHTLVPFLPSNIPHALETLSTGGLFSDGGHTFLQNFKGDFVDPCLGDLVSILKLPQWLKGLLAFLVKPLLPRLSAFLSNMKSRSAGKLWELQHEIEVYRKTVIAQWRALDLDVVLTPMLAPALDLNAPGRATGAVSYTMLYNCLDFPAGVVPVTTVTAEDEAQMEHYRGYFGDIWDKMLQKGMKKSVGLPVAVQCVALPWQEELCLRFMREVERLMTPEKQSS

[2] = biological target: T1, fatty-acid amide hydrolase (FAAH); test: FAAH inhibitor screening assay kit (Cayman […]), dose-response […]; assay type: biochemical

Row | SMILES | inhibition at 10 µM [1] | IC50 [2]
1 | O=C(Oc1ccc([N+](=O)[O-])cc1)N1CCN(Cc2cccc(Oc3ccccc3)c2)CC1 [JZL195] | 88 ± 1.26% | –
2 | O=c1c(O)c(-c2ccc(O)cc2)oc2cc(O)cc(O)c12 [kaempferol] | – | 1060 nM
